SMILES strings stand for the structures. Structures can show the parent of a compound that is named as a salt.

The term melting point denotes the temperature, or range, at which the solid turns liquid. `CN1CCc2c(sc3ncn(CCN4CCN(c5ccc(F)c6ccccc56)CC4)c(=O)c23)C1` [Example 140, 3,4,5,6,7,8-Hexahydro-7-methyl-3-[2-(4-(4-fluoronaphth-1-yl)-piperazin-1-yl)ethyl]pyrido[4′,3′:4,5]thieno[2,3-d]-pyrimidin-4-one] came in with a melting point of 157 to 158 °C.

In turn, `COc1ccccc1N1CCN(CCCn2cnc3sc4c(c3c2=O)CCN(Cc2ccccc2)C4)CC1` [Example 18, 3,4,5,6,7,8-Hexahydro-7-benzyl-3-[3-(4-(2-methoxyphenyl)-piperazin-1-yl)propyl]pyrido[4′,3′:4,5]thieno[2,3-d]-pyrimidin-4-one] yielded a melting point of 66 to 67 °C.

Turning to `CN1CCc2c(sc3ncn(CCN4CCN(c5ccc6ccccc6c5)CC4)c(=O)c23)C1` [Example 73, 3,4,5,6,7,8-Hexahydro-7-methyl-3-[2-(4-naphth-2-ylpiperazin-1-yl)ethyl]pyrido[4′,3′:4,5]thieno[2,3-d]pyrimidin-4-one], the melting point is 140 to 141 °C.

In turn, `Cc1c(C(=O)N(C)C)sc2ncn(CCN3CCN(c4ncnc5ccccc45)CC3)c(=O)c12` (as salt: hydrochloride) [Example 29, 3,4-Dihydro-5-methyl-6-dimethylcarbamoyl-3-[2-(4-quinazolin-4-ylpiperazin-1-yl)ethyl]thieno[2,3-d]pyrimidin-4-one] yielded a melting point of 295 to 300 °C.

In turn, `CN1CCc2c(sc3ncn(CCCN4CCN(c5ccccc5O)CC4)c(=N)c23)C1` [Example 29, 3,4,5,6,7,8-Hexahydro-7-methyl-3-[3-(4-(2-hydroxyphenyl)-piperazin-1-yl)propyl]pyrido[4′,3′:4,5]thieno[2,3-d]-pyrimidin-4-imine] returned a melting point of 164 to 166 °C.

As to `CCOC(=O)N1Cc2sc3ncn(CC(C)N4CCN(c5ccccc5Cl)CC4)c(=O)c3c2C1` (centres unmarked) [Example 39, 3,4,5,7-Tetrahydro-6-carboethoxy-3-[2-(4-(2-chlorophenyl)-piperazin-1-yl)propyl]pyrrolo[3′,4′:4,5]thieno-[2,3-d]pyrimidin-4-one], the melting point amounted to 172 °C.

Compound `Cc1ccc(N2CCN(CCn3cnc4sc5c(c4c3=O)CCN(C)C5)CC2)c2ccccc12` [Example 138, 3,4,5,6,7,8-Hexahydro-7-methyl-3-[2-(4-(4-methylnaphth-1-yl)piperazin-1-yl)ethyl]pyrido[4′,3′:4,5]thieno[2,3-d]-pyrimidin-4-one] gave a melting point of 139 to 141 °C.

In the case of `Cc1ccnc(N2CCN(CCn3cnc4sc5c(c4c3=O)CCN(C)C5)CC2)n1` [Example 153, 3,4,5,6,7,8-Hexahydro-7-methyl-3-[2-(4-(4-methylpyrimidin-2-yl)piperazin-1-yl)ethyl]pyrido[4′,3′:4,5]thieno[2,3-d]-pyrimidin-4-one], the melting point is 136 to 138 °C.

`CN1CCc2c(sc3ncn(CCCN4CCN(c5ccccc5C#N)CC4)c(=N)c23)C1` [Example 37, 3,4,5,6,7,8-Hexahydro-7-methyl-3-[3-(4-(2-cyanophenyl)-piperazin-1-yl)propyl]pyrido[4′,3′:4,5]thieno[2,3-d]-pyrimidin-4-imine] came in with a melting point of 148 to 150 °C.

The compound `Cc1cccc(N2CCN(CCn3cnc4sc5c(c4c3=O)CCN(C)C5)CC2)c1C` [Example 44, 3,4,5,6,7,8-Hexahydro-7-methyl-3-[2-(4-(2,3-dimethylphenyl)-piperazin-1-yl)ethyl]pyrido[4′,3′:4,5]thieno[2,3-d]pyrimidin-4-one] came in with a melting point of 163 to 167 °C.

With `Cc1ccc2ccccc2c1N1CCN(CCn2cnc3sc(C(=O)N(C)C)c(C)c3c2=O)CC1` [Example 4, 3,4-Dihydro-5-methyl-6-dimethylcarbamoyl-3-[2-(4-(2-methyl-1-naphthyl)piperazin-1-yl)ethyl]-thieno[2,3-d]pyrimidin-4-one], the melting point fell in the range of 178 to 180 °C.

`CCOC(=O)N1Cc2sc3ncn(CCN4CCN(c5cccc6ccccc56)CC4)c(=O)c3c2C1` [Example 8, 3,4,5,7-Tetrahydro-6-carboethoxy-3-[2-(4-(1-naphthyl)-piperazin-1-yl)ethyl]pyrrolo[3′,4′:4,5]thieno[2,3-d]-pyrimidin-4-one]: the melting point fell in the range of 190 to 192 °C.

Compound `CCN1CCc2sc3ncn(CCN4CCCN(c5cccc6ccccc56)CC4)c(=O)c3c2C1` (as salt: hydrochloride) [Example 17, 3,4,5,6,7,8-Hexahydro-6-ethyl-3-[2-(4-naphth-1-ylhexahydro-1,4-diazepin-1-yl)ethyl]pyrido[3′,4′:4,5]thieno[2,3-d]-pyrimidin-4-one] returned a melting point of 276 to 280 °C.

`CN1CCc2c(sc3ncn(CCN4CCN(c5cc(Cl)cc(Cl)c5)CC4)c(=O)c23)C1` [Example 46, 3,4,5,6,7,8-Hexahydro-7-methyl-3-[2-(4-(3,5-dichlorophenyl)-piperazin-1-yl)ethyl]pyrido[4′,3′:4,5]thieno[2,3-d]pyrimidin-4-one] registered a melting point of 97 to 100 °C.

Compound `CCN1CCc2sc3ncn(CCN4CCN(c5cccc6c5CCCC6)CC4)c(=O)c3c2C1` (as salt: hydrochloride) [Example 12, 3,4,5,6,7,8-Hexahydro-6-ethyl-3-[2-(4-tetralin-5-yl-piperazin-1-yl)ethyl]pyrido[3′,4′:4,5]thieno[2,3-d]pyrimidin-4-one] had a melting point of 287 °C.

Compound `CCOC(=O)N1Cc2sc3ncn(CCN4CCN(c5ccccc5C)CC4)c(=O)c3c2C1` [Example 38, 3,4,5,7-Tetrahydro-6-carboethoxy-3-[2-(4-(2-methylphenyl)-piperazin-1-yl)ethyl]pyrrolo[3′,4′:4,5]thieno-[2,3-d]pyrimidin-4-one] registered a melting point of 152 °C.

The compound `CN1CCc2c(sc3ncn(CCN4CCN(c5nccc(C(F)(F)F)n5)CC4)c(=O)c23)C1` [Example 127, 3,4,5,6,7,8-Hexahydro-7-methyl-3-[2-(4-(4-trifluoromethyl-pyrimidin-2-yl)piperazin-1-yl)ethyl]pyrido[4′,3′:4,5]-thieno[2,3-d]pyrimidin-4-one] came in with a melting point of 291 to 292 °C.

`CCOC(=O)N1Cc2sc3ncn(CCN4CCN(c5cccc6c5CCC6)CC4)c(=O)c3c2C1` [Example 44, 3,4,5,7-Tetrahydro-6-carboethoxy-3-[2-(4-indan-4-ylpiperazin-1-yl)ethyl]pyrrolo[3′,4′:4,5]thieno[2,3-d]pyrimidin-4-one] came in with a melting point of 149 °C.

Regarding `CCOC(=O)N1Cc2sc3ncn(CCN4CCN(c5ncccn5)CC4)c(=O)c3c2C1` [Example 11, 3,4,5,7-Tetrahydro-6-carboethoxy-3-[2-(4-pyrimidin-2-yl-piperazin-1-yl)ethyl]pyrrolo[3′,4′:4,5]thieno[2,3-d]-pyrimidin-4-one], the melting point was 166 °C.

As for `Cc1c(C(=O)N(C)C)sc2ncn(CCN3CCN(c4cccc5c4CCCC5)CC3)c(=O)c12` [Example 13, 3,4-Dihydro-5-methyl-6-dimethylcarbamoyl-3-[2-(4-tetralin-5-ylpiperazin-1-yl)ethyl]thieno[2,3-d]pyrimidin-4-one], the melting point was determined as 174 °C.

`CN1CCc2c(sc3ncn(CCN4CCN(c5cc(C(F)(F)F)ccn5)CC4)c(=O)c23)C1` [Example 141, 3,4,5,6,7,8-Hexahydro-7-methyl-3-[2-(4-(4-trifluoromethylpyridin-2-yl)piperazin-1-yl)ethyl]pyrido[4′,3′:4,5]thieno-[2,3-d]pyrimidin-4-one] returned a melting point of 101 to 102 °C.

As for `CN1CCc2c(sc3ncn(CCCN4CCN(c5ncccn5)CC4)c(=O)c23)C1` [Example 64, 3,4,5,6,7,8-Hexahydro-7-methyl-3-[3-(4-pyrimidin-2-yl-piperazin-1-yl)propyl]pyrido[4′,3′:4,5]thieno[2,3-d]-pyrimidin-4-one], the melting point was 161 to 163 °C.

Consider `CN1CCc2c(sc3ncn(CCN4CCN(c5ccccc5)CC4)c(=O)c23)C1` [Example 145, 3,4,5,6,7,8-Hexahydro-7-methyl-3-[2-(4-phenylpiperazin-1-yl)ethyl]pyrido[4′,3′:4,5]thieno[2,3-d]pyrimidin-4-one], for which the melting point fell in the range of 121 to 123 °C.

The values are drawn from patent US6387912B1, “Utilization of pyrimidine derivatives for preventing and treating cerebral ischaemia” (BASF Aktiengesellschaft, priority 1999, dated 2002).
